Results published in patent US4738954A, “Novel N^6 -substituted-5'-oxidized adenosine analogs” (Warner-Lambert Company, priority 1985, dated 1988).

Columns and labels:
adenosine A1 receptor = biological target: T1, adenosine A1 receptor (Rattus norvegicus, UniProt P25099); experiment: Adenosine Receptor Binding--A1 Receptor Affinity (RBA1), [3H]-CHA displacement; conditions: 1.0 nM [3H]-CHA, rat brain, 25° C, 1 h; read-out: RBA-1 (IC50, A1 receptor affinity)
T1 construct: Whole brain minus cerebellum and brainstem from male Long Evans rats; from tissue; host or cells: rat whole brain minus cerebellum and brainstem, membranes
T1 sequence (P25099 1-326): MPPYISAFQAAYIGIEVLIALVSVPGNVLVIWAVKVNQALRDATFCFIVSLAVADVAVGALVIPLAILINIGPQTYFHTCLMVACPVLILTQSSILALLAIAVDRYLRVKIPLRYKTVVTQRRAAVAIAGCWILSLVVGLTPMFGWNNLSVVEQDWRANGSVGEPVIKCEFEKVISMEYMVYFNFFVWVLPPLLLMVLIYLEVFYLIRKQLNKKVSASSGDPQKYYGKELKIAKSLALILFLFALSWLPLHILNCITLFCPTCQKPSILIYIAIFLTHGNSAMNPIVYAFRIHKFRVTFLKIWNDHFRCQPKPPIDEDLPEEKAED
Description: Adenosine Receptor Binding--A1 Receptor Affinity (RBA1)
Whole brain minus cerebellum and brainstem from male Long Evans rats (105-200 g) was homogenized in 30 volumes of ice-cold 0.05M Tris-HCl buffer pH 7.7 using a Brinkman Polytron PT-10, (setting number 6 for 20 seconds) and centrifuged for ten minutes at 20,000×g (Sorvall RC-2), 4° C. The supernatant was discarded, and the pellet was resuspended and centrifuged as before. The pellet was resuspended in 20 ml Tris-HCl buffer containing two International Units/ml of adenosine deaminase (Sigma type III from calf intestinal mucosa), incubated at 37° C. for 30 minutes, then subsequently at 0° C. for ten minutes. The homogenate was again centrifuged, and the final pellet was resuspended in ice-cold 0.05M Tris-HCl buffer pH 7.7 to a concentration of 20 mg/ml original wet tissue weight and used immediately.
Tissue homogenate (10 mg/ml) was incubated in 0.05M Tris-HCl buffer pH 7.7 containing 1.0 nM ((^3 H))-N^6 -cyclohexyladenosine ([^3 H]-CHA) with or without test agents in triplicate for one hour at 25° C. Incubation volume was 2 ml. Unbound [^3 H]-CHA was separated by rapid filtration under reduced pressure through Whatman glass fiber (GF/B) filters. The filters were rinsed three times with 5 ml of ice cold 0.05M Tris-HCl buffer pH 7.7. The radio-labeled ligand retained on the filter was measured by liquid scintillation spectrophotometry after shaking the filters for one hour or longer on a mechanical shaker in 10 ml of Beckman Ready-Solv HP scintillation cocktail.
Nonspecific binding was defined as the binding which occured in the presence of 1 mM theophylline. The concentration of test agent which inhibited 50% of the specific binding (IC50) was determined by nonlinear computer curve fit. The Scatchard plot was calculated by linear regression of the line obtained by plotting the amount of radioligand bound (pmoles/gram of tissue) versus [formula] Since the amount of radioligand bound was a small fraction of the total amount added, free radioligand was defined as the concentration of (nM) of radioligand added to the incubation mixture. The Hill coefficient was calculated by linear regression of the line obtained by plotting the log of the bound radioligand vs the log of the [formula] The maximal number of binding sites (Bmax) was calculated from the Scatchard plot.

adenosine A2 receptor = biological target: T2, adenosine A2 receptor (Rattus norvegicus, UniProt P30543); experiment: Adenosine Receptor Binding--A2 Receptor Affinity (RBA2), [3H]NECA displacement; format: rat (Sprague-Dawley striatal membranes); conditions: 4 nM [3H]NECA + 50 nM N6-cyclopentyladenosine, rat striatum, 25° C, 60 min; read-out: RBA-2 (IC50, A2 receptor affinity)
T2 construct: Brains were thawed and then kept on ice while the striata were dissected out; tissue Pel-Freez (Rogers, Arkansas) (rat brains); host or cells: rat striatum, membranes
Description: Adenosine Receptor Binding--A2 Receptor Affinity (RBA2)
Brains from 200-500 g mixed sex Sprague-Dawley rats were purchased from Pel-Freez (Rogers, Arkansas). Fresh brains from male Long-Evans hooded rats (Blue Spruce Farms, Altamont, NY) gave essentially identical results. Brains were thawed and then kept on ice while the striata were dissected out. Striata were disrupted in 10 vol of ice-cold 50 mM Tris.HCl (pH 7.7 at 25° C., pH 8.26 at 5° C.) (Tris) for 30 seconds in a Polytron PT-10 (Brinkmann) at setting 5. The suspension was centrifuged at 50,000×g for ten minutes, the supernatant discarded, the pellet resuspended in 10 vol ice-cold Tris as above, recentrifuged, resuspended at 1 g/5 ml, and stored in plastic vials at -70° C. (stable for at least six months). When needed, tissue was thawed at room temperature, disrupted in a Polytron, and kept on ice until used.
All incubations were for 60 minutes at 25° C. in 12×75 mm glass tubes containing 1 ml Tris with 5 mg original tissue weight of rat weight of rat striatal membranes, 4 nM [^3 H]-N-ethyl adenosine-5'-carboxamide ([^3 H]NECA), 50 nM N^6 -cyclopentyladenosine (to eliminate A1 receptor binding), 10 mM MgCl2, 0.1 units/ml of adenosine deaminase and 1% dimethylsulfoxide. N^6 -Cyclopentyladenosine was dissolved at 10 mM in 0.02N HCl and diluted in Tris. Stock solutions and dilutions of N^6 -cyclopentyladenosine could be stored at -20° C. for several months. Test compounds were dissolved at 10 mM in dimethylsulfoxide on the same day as the experiment, and diluted in dimethylsulfoxide to 100× the final incubation concentration. Control incubations received an equal volume (10 μl) of dimethylsulfoxide; the resulting concentration of dimethylsulfoxide had no effect on binding. [^3 H]NECA was diluted to 40 nM in Tris. The membrane suspension (5 mg/0.79 ml) contained sufficient MgCl2 and adenosine deaminase to give 10 mM and 0.1 units/ml, respectively, final concentration in the incubation. […] After all additions, the rack of tubes was vortexed, and the tubes were then incubated for 60 min at 25° C. in a shaking water bath. The rack of tubes was vortexed an additional time halfway through the incubation.
Incubations were terminated by filtration through 2.4 cm GF/B filters under reduced pressure. Each tube was filtered as follows: the contents of the tube were poured on the filter, 4 ml of ice-cold Tris were added to the tube and the contents poured onto the filter, and the filter was washed twice with 4 ml of ice-cold Tris. The filtration was complete in about twelve seconds. Filters were put in scintillation vials, 8 ml of Formula 947 scintillation fluid added, and the vials left overnight, shaken, and counted in a liquid scintillation counter at 40% efficiency.
Nonspecific binding was defined as binding in the presence of 100 μM N^6 -cyclopentyladenosine, and specific binding was defined as total binding minus nonspecific binding. The IC50 was calculated by weighted nonlinear least squares curve-fitting to the mass-action equation. [formula] where Y is cpm bound
T is cpm total binding without drug
S is cpm specific binding without drug
D is the concentration of drug and
K is the IC50 of the drug
Weighting factors were calculated under the assumption that the standard deviation was proportional to the predicted value of Y. Nonspecific binding was treated as a very large (infinite) concentration of drug in the computer analysis.

locomotor activity = experiment: Activity and Screen Test done orally in rats: locomotor activity; format: in vivo
Description: Immediately following the screen test, the final phase of testing is initiated by placing each group of three mice in one actophotometer (Life Sciences, 22, 1067-1076, 1978). The actophotometer consists of a cylindrical chamber whose center is occupied by another cylinder which contains the illumination for six photocells located on the perimeter of the chamber. Six light-beam interruptions equal one count. Locomotor activity is recorded by computer at ten minute intervals for 60 minutes.
(§1) The data obtained from the screen test are expressed as percent of mice falling off the screen. Data derived from locomotor activity of drug treated mice are compared to the activity of vehicle treated animals and are expressed as percent inhibition of spontaneous locomotion. All percentages reported for inhibition of locomotion (LI) are based upon data accumulated for one hour. Both phases of testing are graded: A=60-100%; C=31-59%; and N=0-30%. An overall dose rating is obtained by the following criteria:
(§2) *This was done orally in rats, rather than IP in mice.

[1] = tested on: animals falling off the inverted screen; experiment: Activity and Screen Test done orally in rats: screen test; format: in vivo
Description: A two part testing procedure is started one hour postinjection. First, the screen test (ST) is performed (see Pharmac. Biochem. Behav. 6, 351-353, 1977). Briefly this test consists of placing mice on individual wire screens which are then rotated 180 degrees at the start of a 60 second observation period. The number of mice falling off the inverted screen is recorded.
as §1, §2

T2 sequence (P30543 whole entry): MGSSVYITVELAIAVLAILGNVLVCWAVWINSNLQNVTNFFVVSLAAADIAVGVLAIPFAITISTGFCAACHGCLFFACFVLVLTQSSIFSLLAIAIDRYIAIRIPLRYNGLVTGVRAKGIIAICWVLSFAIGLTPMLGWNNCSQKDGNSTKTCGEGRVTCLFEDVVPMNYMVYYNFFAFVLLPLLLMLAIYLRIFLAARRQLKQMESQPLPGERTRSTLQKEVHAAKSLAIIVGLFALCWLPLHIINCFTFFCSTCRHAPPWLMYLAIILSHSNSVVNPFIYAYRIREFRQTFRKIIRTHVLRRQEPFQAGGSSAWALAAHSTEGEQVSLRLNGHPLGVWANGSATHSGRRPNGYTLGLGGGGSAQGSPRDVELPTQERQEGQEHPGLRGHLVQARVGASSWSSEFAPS

Row | Compound | IC50 (adenosine A1 receptor) [nM] | IC50 (adenosine A2 receptor) [nM] | Inhibition of locomotor activity (locomotor activity; 0.1 mg/kg orally) [%] | Inhibition of locomotor activity (locomotor activity; 0.3 mg/kg orally) [%] | Inhibition of locomotor activity (locomotor activity; 1 mg/kg orally) [%] | Inhibition of locomotor activity (locomotor activity; 3 mg/kg orally) [%] | Inhibition of locomotor activity (locomotor activity; 10 mg/kg orally) [%] | Screen test failure ([1]; 0.1 mg/kg orally) [%] | Screen test failure ([1]; 0.3 mg/kg orally) [%] | Screen test failure ([1]; 1 mg/kg orally) [%] | Screen test failure ([1]; 3 mg/kg orally) [%] | Screen test failure ([1]; 10 mg/kg orally) [%]
1 | CCOC(=O)[C@H]1O[C@@H](n2cnc3c(N[C@H](C)Cc4ccccc4)ncnc32)[C@H](O)[C@@H]1O [Example 7, (R)-N-6-[(2-Phenyl-1-methyl)ethyl]-adenosine-5'-ethylcarboxylate] | 16 | 2680 |  |  |  |  |  |  |  |  |  | 
2 | CCNC(=O)[C@H]1O[C@@H](n2cnc3c(NC4CCCC4)ncnc32)[C@H](O)[C@@H]1O [Example 4, N6-cyclopentyladenosine-5'-ethylcarboxamide] | 0.9 | 198 | 33 | 36 | 81 | 84 | 84 | 22 | 6 | 17 | 22 | 72
3 | CCNC(=O)[C@H]1O[C@@H](n2cnc3c(NC4CC5CCC4C5)ncnc32)[C@H](O)[C@@H]1O (relative stereo) [Example 9, N-6-Norbornyladenosine-5'ethylcarboxamide] |  |  | 37 | 69 | 89 |  |  | 33 | 11 | 44 |  | 
4 | CCNC(=O)[C@H]1O[C@@H](n2cnc3c(N[C@@H]4CCc5ccccc54)ncnc32)[C@H](O)[C@@H]1O [Example 2, (R)-N-6-(1-indanyl) adenosine-5'-ethylcarboxamide] | 29 | 161 |  |  |  |  |  |  |  |  |  | 
